Results taken from patent US8148556B2, “Method of producing tibolone metabolites by fermentation with Rhizopus stolonifer” (priority 2007, dated 2012).
“Also recorded” adds a separate entry of the source.

Columns and labels:
[1] = system: α-Glucosidase (E.C.3.2.1.20); assay: α-Glucosidase enzyme inhibition assay; assay type: biochemical; details: for Active (activity against alpha-glucosidase enzyme): Table 1; for IC50: pH 6.9, 37° C., 0.7 mM PNP-G substrate, NA = inactive compounds
Experimental: α-Glucosidase Enzyme Inhibition Assay
α-Glucosidase (E.C.3.2.1.20) enzyme inhibition assay has been performed according to the slightly modified method of Matsui et al. α-Glucosidase (E.C.3.2.1.20) from Saccharomyces sp. was purchased from Wako Pure Chemical Industries Ltd. (Wako 076-02841). The inhibition has been measured spectrophotometrically at pH 6.9 and at 37° C. using 0.7 mM p-nitrophenyl α-D glucopyranoside (PNP-G) as a substrate and 250 m units/mL enzyme in 50 mM sodium phosphate buffer containing 100 mM NaCl. […] The increment in absorption at 400 nm due to the hydrolysis of PNP-G by α-glucosidase was monitored continuously with the spectrophotometer (Molecular Devices, USA). The concentrations of the test compounds, which inhibited the hydrolysis of PNP-G by α-glucosidase by 50% (IC50), were determined by monitoring the effect of increasing the concentration of these compounds on the inhibition values. The IC50 values were then calculated using EZ-Fit enzyme kinetics program (Perrella Scientific Inc., Amherst, Mass., U.S.A.).

enzyme tyrosinas = target: T1, enzyme tyrosinas (Homo sapiens, UniProt P14679); assay: inhibitory activity against enzyme tyrosinas; assay type: biochemical
T1 sequence (P14679 19-529): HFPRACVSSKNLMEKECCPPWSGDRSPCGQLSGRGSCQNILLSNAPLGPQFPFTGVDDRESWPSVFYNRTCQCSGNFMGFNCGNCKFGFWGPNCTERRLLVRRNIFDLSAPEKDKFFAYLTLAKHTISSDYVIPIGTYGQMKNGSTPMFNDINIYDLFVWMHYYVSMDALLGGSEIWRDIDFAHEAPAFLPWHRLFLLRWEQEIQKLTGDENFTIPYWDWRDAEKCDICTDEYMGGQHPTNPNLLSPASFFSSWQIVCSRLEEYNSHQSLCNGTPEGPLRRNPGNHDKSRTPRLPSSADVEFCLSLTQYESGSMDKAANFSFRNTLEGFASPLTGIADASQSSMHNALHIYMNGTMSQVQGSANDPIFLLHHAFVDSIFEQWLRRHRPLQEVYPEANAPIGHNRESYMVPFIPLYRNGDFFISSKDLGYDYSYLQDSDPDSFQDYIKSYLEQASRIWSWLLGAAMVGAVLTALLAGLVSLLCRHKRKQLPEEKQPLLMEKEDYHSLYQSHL

C#C[C@]1(O)CC[C@H]2[C@@H]3[C@H](C)CC4=C(CCC(=O)C4)[C@H]3CC[C@@]21C [Compound 1, Tibolone]
Active (activity against alpha-glucosidase enzyme) [1]: No

C#C[C@]1(O)CC[C@H]2[C@@H]3[C@H](C)CC4=C(CC[C@H](O)C4)[C@H]3CC[C@@]21C [Compound 2, 3β-hydroxytibolone]
Active (activity against alpha-glucosidase enzyme) [1]: No

C#C[C@]1(O)CC[C@H]2[C@@H]3[C@H](C)CC4=C(CC[C@@H](O)C4)[C@H]3CC[C@@]21C [Compound 3, 3α-hydroxytibolone]
Active (activity against alpha-glucosidase enzyme) [1]: No

C#CC1(O)CCC2C3C(C)CC4=CC(=O)C=CC4C3CCC21C (stereo not drawn) [Compound 7, 7α-methyl-17α-ethynl-17β-hydroxy-19-norandrost-1,4-dien-3-one]
inhibitory activity against α-Glucosidase enzyme (in words) [1]: significant activity
Active (activity against alpha-glucosidase enzyme) [1]: Yes
IC50 [1]: 227 ± 0.02 µM

C#CC1(O)CCC2C3C(C)CC4=CC(=O)CCC4(O)C3CCC21C (stereo not drawn) [Compound 8, 7α-methyl-17α-ethynl-10β,17β-dihydroxy-19-norandrost-4-en-3-one]
inhibitory activity against α-Glucosidase enzyme (in words) [1]: pronounced inhibitory activities
Active (activity against alpha-glucosidase enzyme) [1]: No
IC50 [1]: 877 ± 0.03 µM

C#CC1(O)CC(O)C2C3C(C)CC4=C(CCC(=O)C4)C3C(O)CC21C (stereo not drawn) [Compound 9, 7α-methyl-17α-ethynl-11α,15β,17β-trihydroxy-19-norandrost-5(10)-en-3-one]
Active (activity against alpha-glucosidase enzyme) [1]: No
inhibitory activity against enzyme tyrosinas (in words) (enzyme tyrosinas): pronounced inhibitory activity

C#CC1(O)CC(O)C2C3C(C)C=C4CC(=O)CCC4C3C(O)CC21C (stereo not drawn) [Compound 10, 7α-methyl-17α-ethynl-11α,15β,17β-trihydroxy-19-norandrost-5-en-3-one]
Active (activity against alpha-glucosidase enzyme) [1]: No
inhibitory activity against enzyme tyrosinas (in words) (enzyme tyrosinas): pronounced inhibitory activity

C#CC1(O)CCC2C3C(C)C=C4CC(=O)CCC4C3CCC21C (stereo not drawn) [Compound 11, 7α-methyl-17α-ethynl-17β-hydroxy-19-norandrost-5-en-3-one]
Active (activity against alpha-glucosidase enzyme) [1]: No

C#CC1(O)CCC2C3C(C)C(O)C4=CC(=O)CCC4C3CCC21C (stereo not drawn) [Compound 12, 6β-Hydroxy-Δ^4-tibolone]
inhibitory activity against α-Glucosidase enzyme (in words) [1]: pronounced inhibitory activities; also recorded: pronounced inhibitory activity
Active (activity against alpha-glucosidase enzyme) [1]: Yes
IC50 [1]: 653 ± 0.02 µM
melting point: 189 to 193 °C

C#CC1(O)CCC2C3C(C)C(O)C4=CC(=O)CCC4C3CCC21C (stereo not drawn) [Compound 13, 6α-Hydroxy-Δ^4-tibolone]
inhibitory activity against α-Glucosidase enzyme (in words) [1]: pronounced inhibitory activities; also recorded: pronounced inhibitory activity
Active (activity against alpha-glucosidase enzyme) [1]: Yes
IC50 [1]: < 70 µM
melting point: 187 to 190 °C

C#CC1(O)CC(O)C2C3C(C)CC4=CC(=O)CCC4C3CCC21C (stereo not drawn) [Compound 14, 15α-Hydroxy-Δ^4-tibolone]
Active (activity against alpha-glucosidase enzyme) [1]: Yes
IC50 [1]: < 70 µM

C#CC1(O)CCC2C3C(C)C(O)C4=CC(=O)C=CC4C3CCC21C (stereo not drawn) [Compound 15, 7α-methyl-17α-ethynl-6α,17β-dihydroxy-19-norandrost-1,4-dien-3-one]
inhibitory activity against α-Glucosidase enzyme (in words) [1]: significant activity; also recorded: pronounced inhibitory activity
Active (activity against alpha-glucosidase enzyme) [1]: Yes
IC50 [1]: 340 ± 0.02 µM

C#C[C@]1(O)CC[C@H]2[C@@H]3[C@H](C)[C@@H](OC)C4=CC(=O)CC[C@@H]4[C@H]3CC[C@@]21C [Compound 16, 7α-methyl-17α-ethynl-6β-methoxy-17β-hydroxy-19-norandrost-4-en-3-one]
Active (activity against alpha-glucosidase enzyme) [1]: No
